Assay results taken from patent US20250163006A1, “New Coolants, and Preparations Containing Same” (Symrise AG, priority 2022, published 2025).
Where two headings read alike, the source gives them in different places. Blank lines part the entries; values can stand above or below the compound they belong to.

How the values were obtained:
human TRPM8 receptor = biological target: T1, human TRPM8 receptor (Homo sapiens, UniProt Q7Z2W7); experiment: Assay on TRPM8 modulators: Ca2+-sensitive dye (Fluo-4) fluorescence in HEK293-TRPM8 test cells; assay type: cell-based; set-up: relative TRPM8 activation: concentration or dose not given beside the values; conditions: for EC50: HEK293-TRPM8 cells; for relative TRPM8 activation: HEK293 cells recombinantly expressing human TRPM8
T1 construct: expressed in transfected cells; host or cells: HEK293, stably transfected, tetracycline-inducible expression
T1 sequence (Q7Z2W7 whole entry): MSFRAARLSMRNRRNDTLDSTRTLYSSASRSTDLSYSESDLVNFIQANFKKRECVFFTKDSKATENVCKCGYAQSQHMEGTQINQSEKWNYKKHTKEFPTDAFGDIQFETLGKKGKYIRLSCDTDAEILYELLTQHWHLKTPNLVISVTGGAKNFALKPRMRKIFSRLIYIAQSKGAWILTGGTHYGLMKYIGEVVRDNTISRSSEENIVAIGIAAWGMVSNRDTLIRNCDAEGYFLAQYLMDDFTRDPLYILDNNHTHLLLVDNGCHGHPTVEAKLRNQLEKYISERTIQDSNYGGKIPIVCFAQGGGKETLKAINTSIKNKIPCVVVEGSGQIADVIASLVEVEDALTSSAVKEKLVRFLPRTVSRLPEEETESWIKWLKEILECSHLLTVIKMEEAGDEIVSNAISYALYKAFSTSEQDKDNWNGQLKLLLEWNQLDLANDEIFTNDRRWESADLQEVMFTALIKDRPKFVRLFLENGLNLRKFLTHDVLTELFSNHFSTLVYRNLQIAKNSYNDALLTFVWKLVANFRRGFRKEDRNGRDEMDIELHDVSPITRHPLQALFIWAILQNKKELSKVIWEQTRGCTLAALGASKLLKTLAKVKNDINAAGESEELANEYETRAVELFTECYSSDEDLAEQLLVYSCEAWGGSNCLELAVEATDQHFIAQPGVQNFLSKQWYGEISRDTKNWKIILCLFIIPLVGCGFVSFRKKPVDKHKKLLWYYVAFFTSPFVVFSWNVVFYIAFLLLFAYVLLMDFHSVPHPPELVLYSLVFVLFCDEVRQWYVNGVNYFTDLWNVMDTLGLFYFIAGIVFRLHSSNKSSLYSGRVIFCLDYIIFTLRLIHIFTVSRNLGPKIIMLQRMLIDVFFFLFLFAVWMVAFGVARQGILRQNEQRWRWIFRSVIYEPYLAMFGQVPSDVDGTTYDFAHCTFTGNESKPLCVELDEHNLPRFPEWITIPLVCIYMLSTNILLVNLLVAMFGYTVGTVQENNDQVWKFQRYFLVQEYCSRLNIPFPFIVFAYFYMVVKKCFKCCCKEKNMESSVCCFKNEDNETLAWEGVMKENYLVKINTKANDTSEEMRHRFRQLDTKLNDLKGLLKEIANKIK
Outline: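 HEK293 cells stably carrying tetracycline-inducible human TRPM8 (1 µg/ml tetracycline), loaded next day with Fluo-4 (30 min 37 °C, 30 min RT). Compounds tested in triplicate at 0.1–200 µM (≤2% DMSO) and fluorescence read at 485/520 nm. EC50 from 4- or 5-parameter logistic fits of 6–10 concentrations.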

[1] = Sensory tasting of cooling intensity by trained panelists, WS-3 as reference; assay type: in vivo, human; conditions: 5 ppm in 5% sugar solution, rated after one minute, scale 1 (very weak) to 9 (very strong); for Sensory evaluation: cooling intensity; for cooling intensity (sensory evaluation, score): tasted 40 seconds, n=10 to 11
Description: In order to quantify the cooling effect, comparative tests are carried out using menthane-3-carboxylic acid-N-ethylamide as a reference. For these comparative tests, the skilled person replaces the compound or compounds to be used according to the invention with menthane-3-carboxylic acid-N-ethylamide (also referred to as WS-3). Then the intensities of the cooling effects of the respective compounds or active ingredients are sensory evaluated by trained panelists (n=10 to 11) as described below and compared with each other.
The cooling intensity was tested as follows: Test solutions with 5 ppm of the compounds according to the invention were each tasted in a 5% sugar solution as well as a corresponding solution with 30 ppm of the reference substance WS-3. […] The panelists tasted the corresponding test solutions for exactly 40 seconds, rinsing the entire mouth with the corresponding test solution and then spitting out the sample or reference solution. Following the tasting, the test subjects rated the respective cooling intensity after one minute according to a scale of 1 (very weak) to 9 (very strong).

[2] = TRPM8 activation, 6 to 10 concentrations, logistic curve fitting, read-out: EC50 value

Structure (SMILES): CNC(=O)[C@H]1C[C@H]1c1nc(-c2ccccc2)c(-c2ccccc2)o1 (racemic) [Compound A-04, rac-(1S,2R)-2-(4,5-diphenyloxazol-2-yl)-N-methyl-cyclopropane-carboxamides]
EC50 (human TRPM8 receptor; [2]): ≤ 1000 nM
EC50 (human TRPM8 receptor; Table 6, read-out: TRPM8 EC50): 600 nM
EC50 (human TRPM8 receptor; Table 8, read-out: TRPM8 EC50): 600 nM
Sensory evaluation ([1]; Table 6): 0.5
Sensory evaluation ([1]; Table 10): 0.5

Structure (SMILES): CNC(=O)C(C)Sc1nc(C)c(-c2ccccc2)o1 (stereo not shown) [Compound A-05, N-methyl-2-(4-methyl-5-phenyl-oxazol-2-yl)sulfanyl-propanamide]
EC50 (human TRPM8 receptor; Table 6, read-out: TRPM8 EC50): 2310 nM
EC50 (human TRPM8 receptor; Table 8, read-out: TRPM8 EC50): 2310 nM
Sensory evaluation ([1]; Table 6): 1.1
Sensory evaluation ([1]; Table 10): 1.1

Structure (SMILES): CCNC(=O)CCc1nc(-c2ccccc2)c(-c2ccccc2)o1 [Compound A-07, 3-(4,5-diphenyloxazol-2-yl)-N-ethyl-propanamide]
EC50 (human TRPM8 receptor; [2]): ≤ 1000 nM
EC50 (human TRPM8 receptor; Table 6, read-out: TRPM8 EC50): 150 nM
EC50 (human TRPM8 receptor; Table 8, read-out: TRPM8 EC50): 150 nM
Sensory evaluation ([1]; Table 6): 2.67
Sensory evaluation ([1]; Table 10): 2.67

Structure (SMILES): CNC(=O)CCc1nc(-c2ccccc2)c(-c2ccccc2)o1 [Compound A-16, 3-(4,5-diphenyloxazol-2-yl)-N-methyl-propanamide]
EC50 (human TRPM8 receptor; Table 6, read-out: TRPM8 EC50): 4270 nM
EC50 (human TRPM8 receptor; Table 8, read-out: TRPM8 EC50): 4270 nM
Sensory evaluation ([1]; Table 6): 2.3
Sensory evaluation ([1]; Table 10): 2.3

Structure (SMILES): CNC(=O)C(C)Sc1cnc(-c2ccccc2)c(-c2ccccc2)n1 (stereo not shown) [Compound B-02, 2-(5,6-diphenylpyrazin-2-yl)sulfanyl-N-methyl-propanamide]
EC50 (human TRPM8 receptor; [2]): ≤ 1000 nM
EC50 (human TRPM8 receptor; Table 5, read-out: TRPM8 EC50): 80 nM
EC50 (human TRPM8 receptor; Table 7, read-out: TRPM8 EC50): 80 nM
cooling intensity (sensory evaluation, score) [1]: 4.1
Sensory evaluation ([1]; Table 5): 4.1
Sensory evaluation ([1]; Table 9): 4.1

Structure (SMILES): O=C(CSc1nnc(-c2ccccc2)c(-c2ccccc2)n1)N1CCC1 [Compound B-06, 1-(azetidin-1-yl)-2-[(5,6-diphenyl-1,2,4-triazin-3-yl)sulfanyl]ethanone]
EC50 (human TRPM8 receptor; [2]): ≤ 1000 nM
EC50 (human TRPM8 receptor; Table 5, read-out: TRPM8 EC50): 280 nM
EC50 (human TRPM8 receptor; Table 7, read-out: TRPM8 EC50): 280 nM
Sensory evaluation ([1]; Table 5): 3.0
Sensory evaluation ([1]; Table 9): 3.0

Structure (SMILES): CNC(=O)C(C)Sc1nnc2c3ccccc3c3ccccc3c2n1 (stereo not shown) [Compound B-07, N-methyl-2-phenanthro[9,10-e][1,2,4]triazine-3-ylsulfanyl-propanamide]
EC50 (human TRPM8 receptor; EC50 value, TRPM8 activation, 6 to 10 concentrations, logistic curve fitting): ≤ 1000 nM
EC50 (human TRPM8 receptor; TRPM8 EC50, Table 5): 920 nM
EC50 (human TRPM8 receptor; TRPM8 EC50, Table 7): 920 nM
Sensory evaluation ([1]; Table 5): 0.75
Sensory evaluation ([1]; Table 9): 0.75

Structure (SMILES): CNC(=O)C(C)Sc1nnc(-c2ccccc2)c(-c2ccccc2)n1 (stereo not shown) [Compound B-11, 2-[(5,6-diphenyl-1,2,4-triazin-3-yl)sulfanyl]-N-methyl-propanamide]
EC50 (human TRPM8 receptor; Table 5, read-out: TRPM8 EC50): 1430 nM
EC50 (human TRPM8 receptor; Table 7, read-out: TRPM8 EC50): 1430 nM
cooling intensity (sensory evaluation, score) [1]: 5.3
Sensory evaluation ([1]; Table 5): 5.3
Sensory evaluation ([1]; Table 9): 5.3

Structure (SMILES): O=C(CSc1nnc(-c2ccccc2)c(-c2ccccc2)n1)NC1CC1 [Compound B-19, N-cyclopropyl-2-[(5,6-diphenyl-1,2,4-triazin-3-yl)sulfanyl]acetamide]
Sensory evaluation ([1]; Table 5): 1.9
Sensory evaluation ([1]; Table 9): 1.9

Continued, in another order:

relative TRPM8 activation (human TRPM8 receptor): 5%
Structure (SMILES): CNC(=O)[C@H]1C[C@@H]1c1nc(-c2ccccc2)c(-c2ccccc2)o1 (racemic) [Compound A-39, rac-(1S,2S)-2-(4,5-diphenyloxazol-2-yl)-N-methyl-cyclopropane-carboxamides]
Sensory evaluation ([1]; Table 6): 0.7

EC50 (human TRPM8 receptor; Table 6, read-out: TRPM8 EC50): 10 nM
EC50 (human TRPM8 receptor; Table 8, read-out: TRPM8 EC50): 10 nM
Structure (SMILES): CNC(=O)C(C)Sc1nc(-c2ccccc2)c(-c2ccccc2)o1 (stereo not shown) [Compound A-02, 2-(4,5-diphenyloxazol-2-yl)sulfanyl-N-methyl-propanamide]
cooling intensity (sensory evaluation, score) [1]: 5.4
Sensory evaluation ([1]; Table 6): 5.4
Sensory evaluation ([1]; Table 10): 5.4

EC50 (human TRPM8 receptor; Table 6, read-out: TRPM8 EC50): 1540 nM
EC50 (human TRPM8 receptor; Table 8, read-out: TRPM8 EC50): 1540 nM
Structure (SMILES): CCC(Sc1nc(-c2ccccc2)c(-c2ccccc2)o1)C(=O)NC (stereo not shown) [Compound A-09, 2-(4,5-diphenyloxazol-2-yl)sulfanyl-N-methyl-butanamide]
cooling intensity (sensory evaluation, score) [1]: 4.66
Sensory evaluation ([1]; Table 6): 4.66
Sensory evaluation ([1]; Table 10): 4.66

EC50 (human TRPM8 receptor; Table 6, read-out: TRPM8 EC50): 2130 nM
EC50 (human TRPM8 receptor; Table 8, read-out: TRPM8 EC50): 2130 nM
Structure (SMILES): CC(Sc1nc(-c2ccccc2)c(-c2ccccc2)o1)C(=O)NC1CC1 (stereo not shown) [Compound A-10, N-cyclopropyl-2-(4,5-diphenyloxazol-2-yl) sulfanyl-propanamide]
cooling intensity (sensory evaluation, score) [1]: 5.38
Sensory evaluation ([1]; Table 6): 5.38
Sensory evaluation ([1]; Table 10): 5.38

EC50 (human TRPM8 receptor; Table 6, read-out: TRPM8 EC50): 5090 nM
EC50 (human TRPM8 receptor; Table 8, read-out: TRPM8 EC50): 5090 nM
Structure (SMILES): CCCNC(=O)C(C)Sc1nc(-c2ccccc2)c(-c2ccccc2)o1 (stereo not shown) [Compound A-12, 2-(4,5-diphenyloxazol-2-yl)sulfanyl-N-propyl-propanamide]
Sensory evaluation ([1]; Table 6): 1.26
Sensory evaluation ([1]; Table 10): 1.26

relative TRPM8 activation (human TRPM8 receptor): 80%
Structure (SMILES): O=C(CCc1nc(-c2ccccc2)c(-c2ccccc2)o1)NC1CC1 [Compound A-18, N-cyclopropyl-3-(4,5-diphenyloxazol-2-yl)propanamide]
Sensory evaluation ([1]; Table 6): 0.71

relative TRPM8 activation (human TRPM8 receptor): 73%
Structure (SMILES): CC(Sc1nc(-c2ccccc2)c(-c2ccccc2)o1)C(N)=O (stereo not shown) [Compound A-20, 2-(4,5-diphenyloxazol-2-yl)sulfanyl-propanamide]
Sensory evaluation ([1]; Table 6): 0.81

relative TRPM8 activation (human TRPM8 receptor): 69%
Structure (SMILES): O=C(CCc1nc(-c2ccccc2)c(-c2ccccc2)o1)NC1CC1 [Compound A-22, N-cyclopropyl-3-(4,5-diphenyloxazol-2-yl)propanamide]
Sensory evaluation ([1]; Table 6): 0.8

relative TRPM8 activation (human TRPM8 receptor): 1%
Structure (SMILES): CCSc1nc(-c2ccccc2)c(-c2ccccc2)o1 [Compound A-55, 2-ethylsulfanyl-4,5-diphenyl-oxazole]
Sensory evaluation ([1]; Table 6): 0.59

EC50 (human TRPM8 receptor; [2]): ≤ 1000 nM
EC50 (human TRPM8 receptor; Table 5, read-out: TRPM8 EC50): 50 nM
EC50 (human TRPM8 receptor; Table 7, read-out: TRPM8 EC50): 50 nM
Structure (SMILES): CC(Sc1nnc(-c2ccccc2)c(-c2ccccc2)n1)C(=O)NC1CC1 (stereo not shown) [Compound B-01, N-Cyclopropyl-2-[(5,6-diphenyl-1,2,4-triazin-3-yl)sulfanyl] propanamide]
cooling intensity (sensory evaluation, score) [1]: 4.2
Sensory evaluation ([1]; Table 5): 4.2
Sensory evaluation ([1]; Table 9): 4.2
